From publication PMC11022681 (Journal of the American Chemical Society, 2023)

Assay: Kinetic inertness: transmetalation with excess Zn2+
Type: physicochemical
Conditions: 25 equivalents of Zn2+, 37 °C, pH 6.0 MES buffer

Mn-PyC3A
pseudo-first-order rate constant of transmetalation: 5.5 ± 0.4 ×10^−4 s^−1
